Six substances from PMC6092832, “Anti-inflammatory activities of Aedes aegypti cecropins and their protection against murine endotoxin shock” (Parasites & Vectors, 2018) can be followed below.

Where two headings read alike, the source gives them in different places. Where no end group is shown, it is not given here.

What all share (assay type): cell-based
In data set [1] the test system is LPS-stimulated mouse peritoneal macrophages. As for the experimental part: (§1) ^aAnti-inflammatory interactions between peptide 1 and peptide 2 of AeaeCec peptides were determined by the chequerboard assay as described previously. First, 2-fold serial dilutions of peptides were prepared. Next, peptides were dissolved in PBS and added to mouse macrophages to final concentrations of 5, 2.5, 1.25, 0.625, 0.3125 µMin each well of a 96-well plate in the presence of E. coli LPS (100 ng/ml). The same volume of PBS served as a control. After incubation at 37˚Cfor 24 h, the culture supernatants of mouse macrophages were detected for the NO production (nitrite accumulation) using Griess reagent. Half maximal inhibitory concentrations (IC50) were calculated. The fractional inhibitory concentration index (FICI) was calculated for each combination using this equation: FICI = FICA+ FICB, where FICA= IC50 of peptide A in combination/IC50 of peptide A alone, and FICB= IC50 of peptide B in combination/IC50 of peptide B alone. FICI of ≤ 0.5 was interpreted as synergy, 0.5 < FICI ≤ 1.0 as additive, 1.0 < FICI ≤ 4.0 as indifferent, and FICI > 4.0 as antagonism. Data were calculated from three independent experiments and presented as mean ± SEM.
as §1, with “2” for “2 of AeaeCec peptides”, “µM in” for “µMin”, “supernatant” for “supernatants”, “assayed” for “detected”, “for” for “for the”, “≤1.0” for “≤ 1.0”

Another data set concerns E. coli. From the text:
MIC: minimal inhibitory concentration. These concentrations represent mean values of three independent experiments performed in duplicates. CI: clinically isolated strain.

Data set [2] relates to mouse peritoneal macrophages. As to the kind of experiment: CCK-8 cytotoxic assay. As to conditions: 24 h. The procedure: Cell Counting Kit-8 (CCK-8) was used to detect the cytotoxicity of AeaeCec1-5 against mammalian cells. In brief, mouse peritoneal macrophages, human PBMCs and Vero E6 cells were seeded in 96-well plates (2×10^4 cells/well, 100 μl/well). After cells adhered to culture plate, the culture medium was transferred with a two-fold dilution series of AeaeCec1-5 beginning with 50 μM (100 μl) prepared in serum-free RPMI-1640 for mouse macrophages and human PBMCs, and serum-free DMEM for Vero E6 cells. After incubation at 37 °C for 24 h, CCK-8 solution (10 μl/well) was added for an additional 4 h incubation. The absorbance at 450 nm was recorded on a microplate reader (Epoch Etock, BioTek, Vermont, USA).
Supplementary file 13071_2018_3000_MOESM2_ESM.tif: Additional file 2: Figure S1. Cytotoxicity of Ae. aegypti cecropins against mammalian cells. a Mice peritoneal macrophages, human PBMCs and Vero E6 cells were exposed to 50 μM AeaeCec1-5, respectively. b Mice peritoneal macrophages and human PBMCs were exposed to series of two-fold AeaeCec5 dilutions ranging from 3.125 to 50 μM, respectively. (TIF 161 kb)

Setting [3] is: IC50 in combination with AeaeCec1 / IC50 alone.
Where [4] appears, read: IC50 in combination with AeaeCec2 / IC50 alone.
Where [5] appears, read: IC50 in combination with AeaeCec3 / IC50 alone.
Where [6] appears, read: IC50 in combination with AeaeCec5(2W→2A) / IC50 alone.
[7] abbreviates: IC50 in combination with AeaeCec5 / IC50 alone.
Setting [8] is: IC50 in combination with AeaeCec4 / IC50 alone.

As to “GGLKKLGKKLEGAGKRVFKASEKALPVVVGIKAI-NH2 [AeaeCec4]”, the FIC in data set [1] (setting [3]) turned out to be 0.50; in data set [1] (setting [4]) it was 0.49; in data set [1] (setting [5]), 0.52; in data set [1] (setting [6]), 0.53; in data set [1] (setting [7]), 0.43.

With “GGLKKLGKKLEGAGKRVFNAAEKALPVVAGAKAL-NH2 [AeaeCec2]”, the FIC in data set [1] (setting [3]) is recorded as 0.50; in data set [1] (setting [5]), 0.49; in data set [1] (setting [8]), 0.53; in data set [1] (setting [6]) it was 0.50; in data set [1] (setting [7]), 0.47.

As to “GGLKKLGKKLEGAGKRVFNAAEKALPVVAGAKALRK [AeaeCec1]”, the FIC in data set [1] (setting [4]) turned out to be 0.52; in data set [1] (setting [5]) it was 0.53; in data set [1] (setting [8]), 0.54; in data set [1] (setting [6]) it was 0.47; in data set [1] (setting [7]), 0.42.

On to “GGLKKLGKKLEGVGKRVFKASEKALPVVTGYKAI-NH2 [AeaeCec3]”, for which the FIC amounted to 0.49 in data set [1] (setting [3]); 0.52 in data set [1] (setting [4]); 0.50 in data set [1] (setting [8]); 0.51 in data set [1] (setting [6]); 0.47 in data set [1] (setting [7]).

Take “RAKFGKKLEKVGKNVFNAAKKALPVVAGYKAL-NH2 [AeaeCec5(2W→2A)]”: the FIC came out at 0.61 in data set [1] (setting [3]), 0.57 in data set [1] (setting [4]), 0.54 in data set [1] (setting [5]) and 0.56 in data set [1] (setting [8]).

“RWKFGKKLEKVGKNVFNAAKKALPVVAGYKAL-NH2 [AeaeCec5]”: the FIC stood at 0.44 in data set [1] (setting [3]), 0.42 in data set [1] (setting [4]), 0.47 in data set [1] (setting [5]) and 0.46 in data set [1] (setting [8]). In the data set on E. coli, this substance gave a minimal inhibitory concentrations of 1.17 to 2.34 µg/mL. Besides, the cytotoxicity in data set [2] (12.5 μM) is given as 9.5%; in data set [2] (concentration below 6.25 μM), “no cytotoxicity”. In data set [2] (50 μM), the cell death is 28.9%.
